{"source": "PubChem BioAssay AID2305", "about": "(GlaxoSmithKline (GSK), 2010)"}
{"test_system": "P. falciparum 3D7 growth, pLDH absorbance", "assay": "P. falciparum 3D7 growth inhibition, dose response, strain 3D7 (AID 2305)", "units": {"IC50": "µM"}}
{"compound": "CC1CCCC(NC(=O)CCOc2ccccc2)C1", "note": "(stereo not given)", "IC50": 0.88}
{"compound": "CC1(C)CN2CCCC2c2cc(NC(=O)/C=C/c3ccccc3Cl)ccc21", "note": "(stereo not given)", "IC50": 0.99}
{"compound": "COc1ccc(Cl)cc1C(=O)Nc1ccc(-c2nc3ccccc3[nH]2)cc1", "IC50": 0.77}
{"compound": "CN(C)c1ccc(CN2CCC(NC(=O)c3ccc(-c4ccccc4Cl)s3)CC2)cc1", "IC50": 0.9}
{"compound": "Cc1cn(CC(=O)Nc2cccc(-c3cccc(-c4nc5ccc(C(F)(F)F)cc5[nH]4)c3)c2)c(=O)[nH]c1=O", "IC50": 0.68}
{"compound": "FC(F)(F)c1ccc2c(NCCNc3ccnc4cc(C(F)(F)F)ccc34)ccnc2c1", "IC50": 0.03}
{"compound": "CCOc1cc(C(=O)Nc2ccc3nc(N4CCCCC4)cc(C)c3c2)cc(OCC)c1OCC", "IC50": 0.82}
{"compound": "OCCC1CCN(Cc2ccc(-c3ccc(-c4nc5ccccc5[nH]4)cc3)cc2)CC1", "IC50": 0.77}
{"compound": "Cn1nc(-c2ccc(NC(=O)Nc3cc(C(F)(F)F)ccc3F)cc2)c2cnc(NCCc3cnc[nH]3)nc21", "IC50": 0.81}
{"compound": "O=C(Nc1ccccc1)N(Cc1ccc(-c2ccc(CNCc3ccc4c(c3)OCO4)cc2)cc1)C1CCN(Cc2ccccc2)CC1", "IC50": 0.57}
{"compound": "CCN1CCN(c2cc(C)c3cc(NC(=O)c4cc(OC)cc(OC)c4)ccc3n2)CC1", "IC50": 0.16}
{"compound": "Cc1cc(Nc2ncc(C#N)c(Nc3ccccc3C(N)=O)n2)ccc1N1CCN(C)CC1", "IC50": 0.01}
{"compound": "COc1ccc(F)cc1-c1ccccc1CNC(=O)c1cnn(-c2ccc([N+](=O)[O-])cc2)c1C(F)(F)F", "IC50": 0.6}
{"compound": "Cc1ccccc1C1CCN(C2CCC(NC(=O)/C=C/c3ccc(C#N)cc3)CC2)CC1", "note": "(stereo not given)", "IC50": 1.17}
{"compound": "C[C@@H](COc1ccccc1)NCC(O)c1ccc([N+](=O)[O-])c(OCc2ccccc2)c1", "note": "(stereo not given in full)", "IC50": 0.99}
{"compound": "CCCCCCN1CCN(Cc2cccc(NC(=O)c3ccc(Cl)c(Cl)c3)c2)CC1", "IC50": 0.61}
{"compound": "COc1cccc(CNC(=O)c2cnc(N3CCN(c4ccncc4)CC3)c(Cl)c2)c1", "IC50": 1.15}
{"compound": "Cc1cccc2[nH]c(-c3ccc(-c4ccc(CN5CCOCC5)cc4)cc3)nc12", "IC50": 0.82}
{"compound": "OC(CNC12CC3CC(CC(C3)C1)C2)c1cccc(C(F)(F)F)c1", "note": "(stereo not given)", "IC50": 0.3}
{"compound": "CN(Cc1ccccc1)C1CCCN(c2cc(NC(=O)c3cccs3)ccn2)C1", "note": "(stereo not given)", "IC50": 1.13}
{"compound": "COCCNCc1ccc(-c2cccc(CN(C(=O)CCC3CCCC3)C3CCN(Cc4ccccc4)CC3)c2)cc1", "IC50": 0.94}
{"compound": "c1cc(-c2ccc(CN3CCCC3)cc2)cc(-c2nc3ccccc3[nH]2)c1", "IC50": 0.69}
{"compound": "Cc1ccc(C(=O)Nc2ccc(OC3CCN(CCC(C)C)C3)c(Cl)c2)cc1", "note": "(stereo not given)", "IC50": 0.99}
{"compound": "Cc1ccccc1C1CCN(c2ncc(C(=O)NC3CC3)cc2Cl)CC1", "IC50": 0.7}
{"compound": "O=C(NCc1cccc2ccccc12)C1CCCN(C(=O)c2ccc(O)c(-c3ccc(Cl)c(Cl)c3)c2)C1", "note": "(stereo not given)", "IC50": 1.03}
{"compound": "COC(=O)[C@@H](NC(=O)[C@H](CC(C)C)Nc1ccc(C#N)c2ccccc12)c1ccc(O)cc1", "IC50": 0.79}
{"compound": "CCC1=C(C[C@H]2NCCc3cc(OC)c(OC)cc32)C[C@H]2c3cc(OC)c(OC)cc3CCN2C1", "IC50": 0.31}
{"compound": "Cc1cccc2[nH]c(-c3cccc(-c4ccc(NC(=O)C(C)CN(C)C)cc4)c3)nc12", "note": "(stereo not given)", "IC50": 0.22}
{"compound": "Cc1nccn1Cc1cc(C(C)(C)C)c(O)c(C(C)(C)C)c1", "IC50": 0.79}
{"compound": "CC(C)COc1ccc(Cl)cc1Cc1ccc(-c2nc3c(F)cccc3[nH]2)o1", "IC50": 0.81}
{"compound": "CNC(=O)c1cc(F)c(F)cc1Nc1nc(Nc2cccc(CS(C)(=O)=O)c2)ncc1Cl", "IC50": 1.02}
{"compound": "O=S1c2ccccc2Sc2ccccc21", "IC50": 0.17}
{"compound": "O=C(Nc1ccc(-c2cccc(-c3nc4ccc(F)cc4[nH]3)c2)cc1)c1cnn2cccnc12", "IC50": 0.65}
{"compound": "COc1ccc(C2C(C(=O)Nc3ccc4c(c3)OCO4)c3cc(OC)c(OC)cc3C(=O)N2C)cc1", "note": "(stereo not given)", "IC50": 1.04}
{"compound": "O=C(Nc1ccccc1)N(Cc1cccc(-c2cccc(CNCCc3ccccc3)c2)c1)C1CCN(Cc2ccccc2)CC1", "IC50": 0.31}
{"compound": "OCc1ccc(-c2cncc(Nc3ccc(F)c(Cl)c3)c2)cc1", "IC50": 0.09}
{"compound": "O=c1cc(NCCCNCc2sc(Br)c(Br)c2Br)[nH]c2ccccc12", "IC50": 1.01}
{"compound": "C[C@H](N[C@H]1CCCc2c1[nH]c1ccc(Br)cc21)c1ccccc1", "IC50": 0.22}
{"compound": "N#CN1CC[C@@H](NS(=O)(=O)Cc2ccc(Cl)c(Cl)c2)C1", "IC50": 0.53}
{"compound": "COc1cc(C)nc2ccc(NC(=O)Nc3cccc4ccccc34)cc12", "IC50": 0.88}
{"compound": "O=C(Nc1ccc(-c2cccc(-c3nc4ccccc4[nH]3)c2)cc1)Nc1ccc(Cl)c(Cl)c1", "IC50": 0.46}
{"compound": "Oc1cc2ccccc2cc1CNC1CCCCC1", "IC50": 0.59}
{"compound": "CC(C)(C)c1ccc(CNC(=O)c2cc(CNC3CCNC3)ccc2O)cc1", "note": "(stereo not given)", "IC50": 0.8}
{"compound": "CC[C@H](C)CNC(=O)c1cncc(-c2ccc(CNCCOc3ccccc3)cc2)c1", "IC50": 1.11}
{"compound": "Cn1nc(-c2ccc(NC(=O)Nc3cc(C(F)(F)F)ccc3F)c(F)c2)c2cnc(NCCCN3CCOCC3)nc21", "IC50": 0.6}
{"compound": "N#Cc1cccc(NC(=O)NC2CCN(CCCCCNC(=O)/C=C/c3ccc(Cl)c(Cl)c3)CC2)c1", "IC50": 0.71}
{"compound": "COc1ccccc1C(C)NCC(=O)Nc1cc(C(F)(F)F)ccc1Cl", "note": "(stereo not given)", "IC50": 0.78}
{"compound": "O=C(Nc1nccs1)c1cc(-c2cccnc2)nc2ccc(Br)cc12", "IC50": 0.4}
{"compound": "COc1ccc(-c2cncc(-c3ccc(OC)c(OC)c3)n2)cc1OC", "IC50": 0.78}
{"compound": "CCOC(=O)c1cccc(NC(=O)Nc2cc(C)nc3ccccc23)c1", "IC50": 0.29}
{"compound": "O=C(NCCCCN1CCC(c2ccc3c(c2OCCO)CCCC3)CC1)c1sc(-c2ccc(C(F)(F)F)cc2)nc1CO", "IC50": 1.05}
{"compound": "NS(=O)(=O)c1cccc(N=Cc2c(O)[nH]c3ccc(S(=O)(=O)Cc4c(Cl)cccc4Cl)cc23)c1", "IC50": 0.72}
{"compound": "Cc1cc(NN=Cc2ccc(Cl)cc2)c2cccc(C)c2n1", "IC50": 0.72}
{"compound": "c1cc(-c2ccc(CNCCCn3ccnc3)cc2)cc(-c2nc3ccccc3[nH]2)c1", "IC50": 0.11}
{"compound": "c1ccc(C(c2ccccc2)N2CCC(NCc3ccc(OCCCN4CCCCC4)cc3)CC2)cc1", "IC50": 0.56}
{"compound": "N#Cc1ccc(-c2ccc(C(=O)NCCCCN3CCC(c4cn(CCCO)c5ccccc45)CC3)cc2)cc1", "IC50": 0.75}
{"compound": "N#Cc1cccc(-c2cnc(N)c(-c3nc4ccc(S(N)(=O)=O)cc4[nH]3)c2)c1", "IC50": 0.64}
{"compound": "COc1ccc(Cl)cc1N1CCN(CCCNC(=O)c2ccc(-c3nc4ccc(C(F)(F)F)cc4[nH]3)c(C)c2)CC1", "IC50": 0.76}
{"compound": "c1ccc(-c2nc(Nc3ccncc3)sc2-c2ccccc2)cc1", "IC50": 0.81}
{"compound": "CCOC(=O)c1[nH]c(-c2cccc(F)c2)nc1N", "IC50": 0.75}
{"compound": "CCN(CC)CCN(Cc1ccc(-c2ccc(C(F)(F)F)cc2)cc1)C(=O)Cn1c(SCc2ccc(F)cc2)nc(=O)c2sccc21", "IC50": 0.99}
{"compound": "Cc1nnsc1C(=O)Nc1cccc(-c2ccc(-c3nc4ccc(F)cc4[nH]3)s2)c1", "IC50": 0.89}
{"compound": "COc1ccc(C(=O)c2ccc3[nH]cc(C4=CCN(C)CC4)c3c2)cc1", "IC50": 1.05}
{"compound": "CN(CCc1ccccn1)Cc1ccc(-c2ccc(-c3nc4ccccc4[nH]3)s2)cc1", "IC50": 0.59}
{"compound": "Cc1nnsc1C(=O)Nc1cccc(-c2cccc(-c3nc4c(C)cccc4[nH]3)c2)c1", "IC50": 0.27}
{"compound": "Cc1cc(NN=Cc2ccccc2Cl)c2cc(C(F)(F)F)ccc2n1", "IC50": 0.86}
{"compound": "Nc1nc(N)c2c(ccc3c2ccn3CCCCO)n1", "IC50": 0.12}
{"compound": "CCc1sc(N2CCN(C)CC2)nc1C(=O)Nc1ccc(F)cc1C(F)(F)F", "IC50": 0.18}
{"compound": "Nc1nccc(-c2ccc3c(/C=C/c4ccccc4)cnc(N)c3c2)n1", "IC50": 0.62}
{"compound": "C[C@H](NC(=O)c1cc(-c2ccc(C(C)(C)C)cc2)no1)C(=O)O", "note": "(tested in a mixture with another compound)", "IC50": 0.14}
{"compound": "CC(=O)N1N=C(c2ccc(Cl)cc2)Sc2c1nc(-c1ccccc1)n2C(C)=O", "IC50": 0.49}
{"compound": "COc1cccc(Nc2nc(N)c3ccccc3n2)c1", "IC50": 0.93}
{"compound": "CC(CO)(CO)NCc1cc2ccc3ccsc3c2c2ccccc12", "IC50": 0.23}
{"compound": "COc1cc(C(=O)NC2CCN(Cc3ccccc3)CC2)ccc1-c1nc2cc(Cl)c(Cl)cc2[nH]1", "IC50": 0.52}
{"compound": "COc1cc(Nc2ncnc3cc(OC)c(OC)cc23)cc([N+](=O)[O-])c1", "IC50": 0.81}
{"compound": "C=CCn1c(Sc2ccc(C#N)c([N+](=O)[O-])c2)nnc1-c1cc(OC)cc(OC)c1", "IC50": 0.44}
{"compound": "Cc1cccc2[nH]c(-c3cccc(-c4cccc(NC(=O)c5cnccc5C(F)(F)F)c4)c3)nc12", "IC50": 0.66}
{"compound": "COc1cccc(Nc2nc(NCCO)c3ccccc3n2)c1", "IC50": 0.15}
{"compound": "O=C(Nc1cccc(Cl)c1Cl)N[C@H]1CCN(CCCCCNC(=O)[C@@H]2C[C@H]2c2ccc(Cl)c(Cl)c2)C1", "IC50": 1.28}
{"compound": "CC1CCC(NCc2c(O)ccc3ccccc23)CC1", "note": "(stereo not given)", "IC50": 0.77}
{"compound": "Cc1cc2c(cc1C(F)(F)F)N(C(=O)Nc1ccc(C(=O)NCCN3CCCC3)cc1)CC2", "IC50": 0.32}
{"compound": "CN1CCN(CC(=O)Nc2cccc(-c3cccc(-c4nc5ccc(F)cc5[nH]4)c3)c2)CC1", "IC50": 0.74}
{"compound": "CC[C@H]1CN2CC[C@H]1C[C@H]2[C@H](O)c1cc(N2CCCC2)nc2ccc(OC)cc12", "IC50": 0.04}
{"compound": "COC(=O)Cn1c2ccccc2c2c(N)c(C(=O)OC)c(C)nc21", "IC50": 0.94}
{"compound": "O=C(NC12CC3CC(CC(C3)C1)C2)C(=O)c1c[nH]c2ccccc12", "IC50": 0.23}
{"compound": "NC(=O)c1cccc(Nc2nccc(Nc3ccc(Oc4cccc(Cl)c4)c(Cl)c3)n2)c1", "IC50": 1.28}
{"compound": "COc1ccc(-c2nc(NC(=O)Cc3ccc4c(c3)OCCO4)sc2C)cc1", "IC50": 0.24}
{"compound": "O=C(Nc1ccc(Cl)cc1)c1cccc(S(=O)(=O)NC2CCN(CC3CCCCC3)C2)c1", "note": "(stereo not given)", "IC50": 0.91}
{"compound": "COc1cccc(C(=O)Nc2ccc(Nc3nc(C)cc(N(C)C)n3)cc2)c1OC", "IC50": 1.02}
{"compound": "O=C(/C=C/c1ccc(F)c(Br)c1)NCCCCCN1CCC(c2c[nH]c3ccccc23)CC1", "IC50": 0.86}
{"compound": "Cc1cc(F)ccc1Nc1nc(N(C)c2ccccc2)c2cccc(O)c2n1", "IC50": 0.96}
{"compound": "CC(C)CNCc1cccc(-c2ccc(CN(CCCN3CCN(C)CC3)C(=O)CCC3CCCC3)cc2)c1", "IC50": 0.88}
{"compound": "COc1ccc2ncc(F)c(CCN3CC[C@@H](CNCc4nc5c(cc4C)SCC(=O)N5)C3)c2n1", "IC50": 1.15}
{"compound": "NC(=O)c1sc(-n2cnc3ccc(OCC4CCNCC4)cc32)cc1OCc1ccccc1C(F)(F)F", "IC50": 0.75}
{"compound": "CN(c1ccc(NC(=O)Nc2cc(C(C)(C)C)on2)cc1)c1ccnc(NCCN2CCOCC2)n1", "IC50": 1.12}
{"compound": "CC(=O)NCCNc1nccc(N2CCc3ncnc(Nc4ccc(OCc5ccccn5)c(Cl)c4)c3C2)n1", "IC50": 0.82}
{"compound": "COc1ccc2nccc(NN=Cc3ccc(N(C)C)cc3)c2c1", "IC50": 0.8}
{"compound": "N#CN1CC[C@@H](OC(=O)N[C@@H]2C[C@H]2c2ccccc2)C1", "IC50": 1.34}
{"compound": "Cc1[nH]c2c(C)cc(NS(C)(=O)=O)cc2c1C1CCN(CC2CCN(C(=O)/C=C/c3ccc(Cl)c(Cl)c3)CC2)CC1", "IC50": 0.24}
{"compound": "COC(=O)c1ccc(CC(C)NCC(O)c2cccc(I)c2)cc1", "note": "(stereo not given)", "IC50": 1.32}
